Patent publication US7776872B2, “Diaminopyrimidines as P2X3 and P2X2/3 modulators” (Roche Palo Alto LLC, priority 2005, dated 2010)

What was measured:
rat P2X3 receptor = biological target: T1, rat P2X3 receptor (Rattus norvegicus, UniProt P49654); experiment: P2X3 FLIPR (Fluorometric Imaging Plate Reader) assay, CHO-K1 cells; type: cell-based; conditions: CHO-K1 cells transfected with rat P2X3; agonist α,β-meATP 1 μM; Fluo-3 calcium fluorescence
T1 construct: expressed in transfected cells; host or cells: CHO-K1
T1 sequence (P49654 1-397): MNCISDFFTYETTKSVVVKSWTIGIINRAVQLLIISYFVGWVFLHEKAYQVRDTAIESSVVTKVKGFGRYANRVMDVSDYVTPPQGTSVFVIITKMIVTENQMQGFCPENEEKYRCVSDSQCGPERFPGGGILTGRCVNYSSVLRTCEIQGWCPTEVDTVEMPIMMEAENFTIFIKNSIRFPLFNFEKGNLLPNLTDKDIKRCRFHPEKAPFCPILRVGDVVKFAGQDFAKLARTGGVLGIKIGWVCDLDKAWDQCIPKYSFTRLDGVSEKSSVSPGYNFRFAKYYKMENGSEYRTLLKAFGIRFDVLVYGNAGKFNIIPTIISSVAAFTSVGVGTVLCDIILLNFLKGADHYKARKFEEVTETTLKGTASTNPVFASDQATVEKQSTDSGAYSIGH
Experimental: (§1) CHO-K1 cells were transfected with cloned rat P2X3 or human P2X2/3 receptor subunits and passaged in flasks. 18-24 hours before the FLIPR experiment, cells were released from their flasks, centrifuged, and resuspended in nutrient medium at 2.5×10^5 cells/ml. The cells were aliquoted into black-walled 96-well plates at a density of 50,000 cells/well and incubated overnight in 5% CO2 at 37° C. On the day of the experiment, cells were washed in FLIPR buffer (calcium- and magnesium-free Hank's balanced salt solution, 10 mM HEPES, 2 mM CaCl2, 2.5 mM probenecid; FB). Each well received 100 μl FB and 100 μl of the fluorescent dye Fluo-3 AM [2 μM final conc.]. […]
(§2) Test compounds (dissolved in DMSO at 10 mM and serially diluted with FB) or vehicle were added to each well (25 μl of a 4X solution) and allowed to equilibrate for 20 minutes at room temperature. The plates were then placed in the FLIPR and a baseline fluorescence measurement (excitation at 488 nm and emission at 510-570 nm) was obtained for 10 seconds before a 100 µl/well agonist or vehicle addition. […] Fluorescence was measured for an additional 2 minutes at 1 second intervals after agonist addition. A final addition of ionomycin (5 μM, final concentration) was made to each well of the FLIPR test plate to establish cell viability and maximum fluorescence of dye-bound cytosolic calcium. […]

human P2X2/3 receptor = biological target: T2, human P2X2/3 receptor (Homo sapiens, UniProt P56373+Q9UBL9); experiment: P2X2/3 FLIPR (Fluorometric Imaging Plate Reader) assay, CHO-K1 cells; type: cell-based; conditions: CHO-K1 cells transfected with human P2X2/3; agonist α,β-meATP 5 μM; Fluo-3 calcium fluorescence
T2 construct: expressed in transfected cells; host or cells: CHO-K1
T2 sequence (Q9UBL9 1-471): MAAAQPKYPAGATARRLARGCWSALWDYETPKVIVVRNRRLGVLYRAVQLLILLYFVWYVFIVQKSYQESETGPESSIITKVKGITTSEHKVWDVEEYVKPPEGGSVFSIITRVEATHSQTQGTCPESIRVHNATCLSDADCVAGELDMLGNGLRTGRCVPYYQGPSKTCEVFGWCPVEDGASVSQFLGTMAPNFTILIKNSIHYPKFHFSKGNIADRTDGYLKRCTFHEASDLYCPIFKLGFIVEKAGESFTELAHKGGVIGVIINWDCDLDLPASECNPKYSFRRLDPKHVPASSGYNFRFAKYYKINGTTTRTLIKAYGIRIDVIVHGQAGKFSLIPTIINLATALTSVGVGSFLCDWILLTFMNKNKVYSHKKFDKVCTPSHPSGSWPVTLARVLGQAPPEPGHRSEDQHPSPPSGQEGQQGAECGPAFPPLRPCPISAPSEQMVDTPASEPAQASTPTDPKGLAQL
T2 sequence (P56373 1-397): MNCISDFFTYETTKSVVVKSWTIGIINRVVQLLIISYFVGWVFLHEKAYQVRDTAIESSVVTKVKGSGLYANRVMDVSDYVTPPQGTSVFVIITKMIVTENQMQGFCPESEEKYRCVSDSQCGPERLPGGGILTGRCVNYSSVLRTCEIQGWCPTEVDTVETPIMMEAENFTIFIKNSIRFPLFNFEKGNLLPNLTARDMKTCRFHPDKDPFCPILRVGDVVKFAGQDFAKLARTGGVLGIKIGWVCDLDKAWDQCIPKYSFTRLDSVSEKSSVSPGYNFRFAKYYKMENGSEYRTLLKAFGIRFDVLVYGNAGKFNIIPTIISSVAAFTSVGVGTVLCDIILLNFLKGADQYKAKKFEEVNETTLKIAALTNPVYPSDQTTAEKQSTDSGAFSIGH
Experimental: as §1, §2

| SMILES | pIC50 for the P2X3 receptor (rat P2X3 receptor) | pIC50 for the P2X2/3 receptor (human P2X2/3 receptor) | melting point [°C] |
| --- | --- | --- | --- |
| CC(C)c1cc2ncccc2cc1Oc1cnc(N)nc1N [5-(7-Isopropyl-quinolin-6-yloxy)-pyrimidine-2,4-diamine] | approximately 7.42 | approximately 7.30 | 206.9 to 208.2 |
| Cc1cccc2cc(C(C)C)c(Oc3cnc(N)nc3N)cc12 [Compound 1, 5(3-Isopropyl-8-methyl-naphthalen-2-yloxy)-pyrimidine-2,4-diamine] |  |  | 148 |
| COc1ccc2cc(Oc3cnc(N)nc3N)c(C(C)C)cc2c1 [Compound 4, 5-(3-Isopropyl-6-methoxy-naphthalen-2-yloxy)-pyrimidine-2,4-diamine] |  |  | 170 to 172 |

Other lines, results leading:

| pIC50 for the P2X3 receptor (rat P2X3 receptor) | pIC50 for the P2X2/3 receptor (human P2X2/3 receptor) | melting point [°C] | SMILES |
| --- | --- | --- | --- |
|  |  | 276.3 to 278 | CC(C)c1cc2cccnc2cc1Oc1cnc(N)nc1N [Compound 9, 5-(6-lsopropyl-quinolin-7-yloxy)-pyrimidine-2,4-diamine] |
|  |  | 171.9 to 174.4 | CC(C)c1cc2ncccc2cc1Oc1cnc(NC(CO)CO)nc1N [Compound 11, 2-[4-Amino-5-(7-isopropyl-quinolin-6-yloxy)-pyrimidin-2-ylamino]-propane-1,3-diol] |
